In PubChem BioAssay (NCI):
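Each compound was tested at five concentrations against cells in 96-well plates for 48 hours. GI50 marks 50% less growth. TGI marks complete inhibition of growth.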

How the values were obtained:
Assay in all cases: NCI tumour cell line growth inhibition, 48 h
[1] = test system: HOP-62 NSCLC
[2] = test system: MOLT-4 leukemia
[3] = test system: SK-MEL-2 melanoma
[4] = test system: NCI-H23 lung
[5] = test system: OVCAR-3 ovarian
[6] = test system: SF-295 CNS
[7] = test system: CAKI-1 renal
[8] = test system: NCI-H522 lung
[9] = test system: UACC-257 melanoma
[10] = test system: BT-549 breast
[11] = test system: NCI/ADR-RES ovarian
[12] = test system: HL-60(TB) leukemia
[13] = test system: SF-268 CNS
[14] = test system: NCI-H226 lung
[15] = test system: SK-MEL-28 melanoma
[16] = test system: A498 renal
[17] = test system: OVCAR-8 ovarian
[18] = test system: UO-31 renal
[19] = test system: SNB-19 CNS
[20] = test system: SK-OV-3 ovarian
[21] = test system: M14 melanoma
[22] = test system: MALME-3M melanoma
[23] = test system: OVCAR-4 ovarian
[24] = test system: U251 CNS
[25] = test system: SNB-75 CNS
[26] = test system: LOX IMVI melanoma
[27] = test system: OVCAR-5 ovarian
[28] = test system: IGROV1 ovarian
[29] = test system: COLO 205 colon
[30] = test system: EKVX NSCLC
[31] = test system: HOP-92 NSCLC
[32] = test system: CCRF-CEM leukemia
[33] = test system: HCT-15 colon
[34] = test system: HS 578T breast
[35] = test system: TK-10 renal
[36] = test system: HCC-2998 colon
[37] = test system: A549 NSCLC
[38] = test system: MCF7 breast
[39] = test system: SK-MEL-5 melanoma
[40] = test system: ACHN renal
[41] = test system: PC-3 prostate
[42] = test system: MDA-MB-435
[43] = test system: SW-620 colon
[44] = test system: 786-0 renal
[45] = test system: RXF 393 renal
[46] = test system: SN12C renal
[47] = test system: SR leukemia
[48] = test system: K-562 leukemia
[49] = test system: HCT-116 colon
[50] = test system: RPMI-8226 leukemia
[51] = test system: DU-145 prostate
[52] = test system: KM12 colon
[53] = test system: NCI-H460 lung
[54] = test system: UACC-62 melanoma
[55] = test system: MDA-MB-231 breast
[56] = test system: T-47D breast
[57] = test system: HT29 colon
[58] = test system: SF-539 CNS

SMILES: C[C@H]1[C@H](C)CC[C@]2(C(=O)O)CC[C@]3(C)C(=CC[C@@H]4[C@@]5(C)C/C(=C/c6ccco6)C(=O)C(C)(C)[C@@H]5CC[C@]43C)[C@H]12
- GI50 [1]: 3.78 µM
- TGI [1]: 16.9 µM
- GI50 [2]: 3.17 µM
- TGI [2]: 14 µM
- GI50 [3]: 10.1 µM
- TGI [3]: 30.4 µM
- GI50 [4]: 3.85 µM
- TGI [4]: 16.3 µM
- GI50 [5]: 3.44 µM
- TGI [5]: 11.9 µM
- GI50 [6]: 3.72 µM
- TGI [6]: 15.5 µM
- GI50 [7]: 4.55 µM
- TGI [7]: 18 µM
- GI50 [8]: 6.35 µM
- TGI [8]: 23.6 µM
- GI50 [9]: 6.49 µM
- TGI [9]: 29.1 µM
- GI50 [10]: 4.76 µM
- TGI [10]: 18.9 µM
- GI50 [11]: 3.84 µM
- TGI [11]: 16.1 µM
- GI50 [12]: 2.44 µM
- TGI [12]: 7.04 µM
- GI50 [13]: 5.59 µM
- TGI [13]: 22.1 µM
- GI50 [14]: 4.36 µM
- TGI [14]: 23.2 µM
- GI50 [15]: 4.81 µM
- TGI [15]: 17.5 µM
- GI50 [16]: 11.5 µM
- TGI [16]: 33.8 µM
- GI50 [17]: 4.63 µM
- TGI [17]: 24.1 µM
- GI50 [18]: 2.94 µM
- TGI [18]: 13.1 µM
- GI50 [19]: 5.07 µM
- TGI [19]: 23.2 µM
- GI50 [20]: 5.83 µM
- TGI [20]: 33.9 µM
- GI50 [21]: 5.27 µM
- TGI [21]: 21.2 µM
- GI50 [22]: 8.01 µM
- TGI [22]: 22.2 µM
- GI50 [23]: 11.8 µM
- TGI [23]: 33.8 µM
- GI50 [24]: 4.27 µM
- TGI [24]: 17 µM
- GI50 [25]: 18.6 µM
- TGI [25]: 71.8 µM
- GI50 [26]: 4.51 µM
- TGI [26]: 17 µM
- GI50 [27]: 7.59 µM
- TGI [27]: 21 µM
- GI50 [28]: 5.19 µM
- TGI [28]: 21.7 µM
- GI50 [29]: 3.6 µM
- TGI [29]: 15.1 µM
- GI50 [30]: 3.69 µM
- TGI [30]: 15.4 µM
- GI50 [31]: 2.54 µM
- TGI [31]: 12.5 µM
- GI50 [32]: 3.52 µM
- TGI [32]: 16.8 µM
- GI50 [33]: 2.95 µM
- TGI [33]: 12.1 µM
- GI50 [34]: 11.6 µM
- TGI [34]: > 100 µM
- GI50 [35]: 7.9 µM
- TGI [35]: 26.3 µM
- GI50 [36]: 3.84 µM
- TGI [36]: 15.3 µM
- GI50 [37]: 3.71 µM
- TGI [37]: 16.8 µM
- GI50 [38]: 3.17 µM
- TGI [38]: 13 µM
- GI50 [39]: 4.44 µM
- TGI [39]: 15.6 µM
- GI50 [40]: 3.6 µM
- TGI [40]: 13.5 µM
- GI50 [41]: 2.89 µM
- TGI [41]: 13.3 µM
- GI50 [42]: 6.58 µM
- TGI [42]: 20.4 µM
- GI50 [43]: 4.19 µM
- TGI [43]: 19.5 µM
- GI50 [44]: 4.09 µM
- TGI [44]: 19.1 µM
- GI50 [45]: 4.46 µM
- TGI [45]: 16.3 µM
- GI50 [46]: 3.7 µM
- TGI [46]: 18.9 µM
- GI50 [47]: 4.12 µM
- TGI [47]: 50.8 µM
- GI50 [48]: 3.26 µM
- TGI [48]: > 100 µM
- GI50 [49]: 3.1 µM
- TGI [49]: 11.7 µM
- GI50 [50]: 2.83 µM
- TGI [50]: 15.7 µM
- GI50 [51]: 6.41 µM
- TGI [51]: 30.9 µM
- GI50 [52]: 3.82 µM
- TGI [52]: 15.6 µM
- GI50 [53]: 3.37 µM
- TGI [53]: 11.9 µM
- GI50 [54]: 2.86 µM
- TGI [54]: 13 µM
- GI50 [55]: 6.72 µM
- TGI [55]: 24.1 µM
- GI50 [56]: 3.79 µM
- TGI [56]: 33.8 µM
- GI50 [57]: 5.3 µM
- TGI [57]: 34.6 µM
- GI50 [58]: 4.67 µM
- TGI [58]: 16.8 µM
